Experimental data published in patent US11298367B2, “Prodrugs of substituted triazole derivatives and uses thereof” (Bayer Aktiengesellschaft, priority 2017, dated 2022).

Experiments:
human V2 receptor = molecular target: T1, human V2 receptor (Homo sapiens, UniProt P30518); assay: Cellular in vitro assay for vasopressin receptor activity (V2, CRE-luciferase); type: cell-based; details: CHO cell line with human V2 receptor, [Arg8]-vasopressin at EC50; values are for the prodrug as such; read-out: IC50 hV2
T1 construct: expressed in transfected cells; host or cells: CHO K1 cells expressing firefly luciferase under a CRE-responsive promoter
T1 sequence (P30518 whole entry): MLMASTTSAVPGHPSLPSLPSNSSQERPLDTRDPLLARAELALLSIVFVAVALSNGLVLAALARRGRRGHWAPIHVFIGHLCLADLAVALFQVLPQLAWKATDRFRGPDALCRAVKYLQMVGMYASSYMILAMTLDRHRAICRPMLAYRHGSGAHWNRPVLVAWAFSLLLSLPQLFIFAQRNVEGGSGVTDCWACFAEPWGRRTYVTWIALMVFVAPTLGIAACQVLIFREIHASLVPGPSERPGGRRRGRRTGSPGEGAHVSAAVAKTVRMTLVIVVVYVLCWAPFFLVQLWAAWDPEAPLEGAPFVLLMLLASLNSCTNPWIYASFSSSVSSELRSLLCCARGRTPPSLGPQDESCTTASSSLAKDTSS
Procedure: (§1) B-1. Cellular In Vitro Assay for Determining Vasopressin Receptor Activity
(§2) The identification of agonists and antagonists of the V1a and V2 vasopressin receptors from humans, rats and dogs as well as the quantification of the activity of the compounds of the invention is carried out using recombinant cell lines. These cell lines originally derive from a hamster's ovary epithelial cell (Chinese Hamster Ovary, CHO K1, ATCC: American Type Culture Collection, Manassas, Va. 20108, USA). The test cell lines constitutively express the human, rat or dog V1a or V2 receptors. In case of the Gaq-coupled V1a receptors, cells are also stably transfected with a modified form of the calcium-sensitive photoproteins aequorin (human and rat V1a) or obelin (dog V1a), which, after reconstitution with the cofactor coelenterazine, emit light when there are increases in free calcium concentrations [Rizzuto R, Simpson A W, Brini M, Pozzan T, Nature 358, 325-327 (1992); Illarionov B A, Bondar V S, Illarionova V A, Vysotski E S, Gene 153 (2), 273-274 (1995)]. The resulting vasopressin receptor cells react to stimulation of the recombinantly expressed Via receptors by intracellular release of calcium ions, which can be quantified by the resulting photoprotein luminescence. The Gs-coupled V2 receptors are stably transfected into cell lines expressing the gene for firefly luciferase under control of a CRE-responsible promoter. Activation of V2 receptors induces the activation of the CRE-responsive promoter via cAMP increase, thereby inducing the expression of firefly luciferase. The light emitted by photoproteins of V1a cell lines as well as the light emitted by firefly luciferase of V2 cell lines corresponds to the activation or inhibition of the respective vasopressin receptor. The bioluminescence of the cell lines is detected using a suitable luminometer [Milligan G, Marshall F, Rees S, Trends in Pharmacological Sciences 17, 235-237 (1996)].
Vasopressin V2 Receptor Cell Lines:
On the day before the assay, the cells are plated out in culture medium (DMEM/F12, 2% FCS, 2 mM glutamine, 10 mM HEPES) in 384-well microtiter plates and kept in a cell incubator (96% humidity, 5% v/v CO2, 37C). On the day of the assay, test compounds in various concentrations and the agonist [Arg^8]-vasopressin at EC50 concentration are added together to the wells, and plates are incubated for 3 hours in a cell incubator. Upon addition of the cell lysis reagent Triton™ and the substrate luciferin, luminescence of firefly luciferase is measured in a luminometer.
(§3) Table 1A below lists individual IC50 values for the compounds of the invention (including racemic mixtures as well as separated enantiomers) that were obtained from cell lines transfected with the human V1a or V2 receptor. This means these IC50 values are the values for the prodrug and not for the underlying respective drug as the prodrug is mainly stable under the assay conditions.

Solubility = type: physicochemical; details: 24 h room temperature, max. 500 μg/ml; for solubility at 24 h: thermodynamic from solid
Procedure: For each substance 0.5-0.6 mg are weighed exactly. In each case, sufficient medium is added to the sample in such a way that a concentration of c=500 μg/ml is obtained. This sample solution is shaken for 24 h at room temperature and 1400 rpm.
A further sample weight of 0.5-0.6 mg is required for the DMSO calibration solution. This sample is filled with DMSO to a concentration of c=600 μg/ml. Two calibration solutions are prepared from this stock solution. In a 2 ml HPLC vial, 1000 μl of DMSO are initially introduced and 34.4 μl of the stock solution are pipetted (c=20 µg/ml). […] of this solution (c=20 μg/ml) are placed in a further 2 ml HPLC vial containing 500 μl of DMSO (c=2.5 μg/ml).
After shaking the test solutions, 230 μl of the supernatant are transferred into a centrifuge tube and centrifuged at 42 000 rpm (223 000 g) for 30 min. 180 μl of the supernatant are then taken and each diluted with DMSO (1:5 sample 1; 1:100 sample 2), and transferred to HPLC vials. The two calibration solutions and the dilute sample solutions are analyzed by HPLC. Quantification is performed over the corresponding peak areas.
Distilled water; trifluoroacetic acid (Merck; 1.08262.0100); acetonitrile (HPLC grade); DMSO (Merck; 8.02912.2500).
Fluka buffer, Order No. 33643 (11.76 g citric acid, 2.57 g sodium chloride and 2.72 g sodium hydroxide).
Fluka buffer, Order No. 33646 (3.52 g potassium dihydrogenphosphate, 7.26 g sodium hydrogen phosphate).
Solution of 6.18 g sodium chloride and 3.96 g sodium dihydrogen phosphate in 1 L distilled water, adjust with 1M aqueous sodium hydroxide solution to pH 7.4.
0.6057 g TRIS was dissolved in 95 ml water, adjust to pH 8.5 with aqueous hydrochloric acid, fill with water until 100 ml volume is reached.

human V1a receptor = molecular target: T2, human V1a receptor (Homo sapiens, UniProt P37288); assay: Cellular in vitro assay for vasopressin receptor activity (V1a, aequorin luminescence); type: cell-based; details: for IC50: CHO cell line with human V1a receptor, [Arg8]-vasopressin at EC50, values are for the prodrug as such, read-out: IC50 hV1a; for ratio IC50 hV2/hV1a: selectivity ratio hV2/hV1a
T2 construct: expressed in transfected cells; host or cells: CHO K1 (Chinese hamster ovary), also stably transfected with a modified aequorin
T2 sequence (P37288 whole entry): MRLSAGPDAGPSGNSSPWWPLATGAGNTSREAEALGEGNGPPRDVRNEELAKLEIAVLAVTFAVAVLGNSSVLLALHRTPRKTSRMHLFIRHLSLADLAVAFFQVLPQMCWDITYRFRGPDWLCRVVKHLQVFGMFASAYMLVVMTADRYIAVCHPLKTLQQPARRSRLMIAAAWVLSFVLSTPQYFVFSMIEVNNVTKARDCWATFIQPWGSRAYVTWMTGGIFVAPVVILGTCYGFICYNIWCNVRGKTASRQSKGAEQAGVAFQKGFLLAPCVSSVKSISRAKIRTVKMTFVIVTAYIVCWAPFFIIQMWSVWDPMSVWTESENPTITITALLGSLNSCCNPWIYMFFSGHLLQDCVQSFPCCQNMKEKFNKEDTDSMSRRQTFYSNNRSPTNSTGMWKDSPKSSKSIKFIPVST
Procedure: as §1, §2
Vasopressin V1a Receptor Cell Lines:
On the day before the assay, the cells are plated out in culture medium (DMEM/F12, 2% FCS, 2 mM glutamine, 10 mM HEPES, 5 μg/ml coelenterazine) in 384-well microtiter plates and kept in a cell incubator (96% humidity, 5% v/v CO2, 37C). On the day of the assay, test compounds in various concentrations are placed for 10 minutes in the wells of the microtiter plate before the agonist [Arg^8]-vasopressin at EC50 concentration is added. The resulting light signal is measured immediately in a luminometer.
as §3

[1] = PBS buffer pH 7.4, pH 7.4, aqueous buffer, pH = 7.4 PBS buffer
[2] = Tris buffer pH 8.5, pH 8.5, aqueous buffer, pH = 8.5 Tris buffer
[3] = citrate buffer pH 4, pH 4, aqueous buffer, pH = 4 citrate buffer

SMILES | IC50 (human V2 receptor) [nM] | solubility at 24 h (Solubility; [1]) [µg/mL] | solubility at 24 h (Solubility; [2]) [µg/mL] | solubility at 24 h (Solubility; [3]) [µg/mL] | IC50 (human V1a receptor) [nM] | ratio IC50 hV2/hV1a (human V1a receptor; Phosphate) | Solubility (Solubility; pH = 4 citrate buffer) [µg/mL] | Solubility (Solubility; pH = 7.4 PBS buffer, Phosphate) [µg/mL] | Solubility (Solubility; pH = 8.5 Tris buffer, Phosphate) [µg/mL] | ratio IC50 hV2/hV1a (human V1a receptor)
NC(=O)c1nc(Cn2nc(-c3ccc(Cl)cc3)n(C[C@H](OP(=O)([O-])O)C(F)(F)F)c2=O)nn1-c1ncccc1C(F)(F)F.[Na+] [Example 4, Sodium (2S)-3-[1-({5-carbamoyl-1-[3-(trifluoromethyl)pyridin-2-yl]-1H-1,2,4-triazol-3-yl}-methyl)-3-(4-chlorophenyl)-5-oxo-1,5-dihydro-4H-1,2,4-triazol-4-yl]-1,1,1-trifluoropropan-2-yl Hydrogen Phosphate] | 150 | > 500 | > 500 | > 500 | 11.1 | 13.5 |  |  |  | 
NC(=O)c1nc(Cn2nc(-c3ccc(Cl)cc3)n(C[C@H](OP(=O)([O-])O)C(F)(F)F)c2=O)nn1-c1ncccc1C(F)(F)F.[Li+] [Example 6, Lithium (2S)-3-[1-({5-carbamoyl-1-[3-(trifluoromethyl)pyridin-2-yl]-1H-1,2,4-triazol-3-yl}-methyl)-3-(4-chlorophenyl)-5-oxo-1,5-dihydro-4H-1,2,4-triazol-4-yl]-1,1,1-trifluoropropan-2-yl Hydrogen Phosphate] | 220 | 464 | 464 | > 500 | 15.5 | 14.2 |  |  |  | 
NC(=O)c1nc(Cn2nc(-c3ccc(Cl)cc3)n(C[C@H](OP(=O)([O-])O)C(F)(F)F)c2=O)nn1-c1ncccc1C(F)(F)F.[Li+] [Example 7, Lithium (2S)-3-[1-({5-carbamoyl-1-[3-(trifluoromethyl)pyridin-2-yl]-1H-1,2,4-triazol-3-yl}-methyl)-3-(4-chlorophenyl)-5-oxo-1,5-dihydro-4H-1,2,4-triazol-4-yl]-1,1,1-trifluoropropan-2-yl Hydrogen Phosphate] | 160 |  |  |  | 8.85 | 18.1 | >500 | >500 | >500 | 
NC(=O)c1nc(Cn2nc(-c3ccc(Cl)cc3)n(C[C@H](OP(=O)([O-])[O-])C(F)(F)F)c2=O)nn1-c1ncccc1C(F)(F)F.[Mg+2] [Example 9, Magnesium (2S)-3-[1-({5-carbamoyl-1-[3-(trifluoromethyl)pyridin-2-yl]-1H-1,2,4-triazol-3-yl}-methyl)-3-(4-chlorophenyl)-5-oxo-1,5-dihydro-4H-1,2,4-triazol-4-yl]-1,1,1-trifluoropropan-2-yl Phosphate] | 225 | > 500 | 447 | > 500 | 14 |  |  |  |  | 16.1
NC(=O)c1nc(Cn2nc(-c3ccc(Cl)cc3)n(C[C@H](OP(=O)([O-])O)C(F)(F)F)c2=O)nn1-c1ncccc1Cl.[Na+] [Example 20, Sodium (2S)-3-[1-{[5-carbamoyl-1-(3-chloropyridin-2-yl)-1H-1,2,4-triazol-3-yl]methyl}-3-(4-chlorophenyl)-5-oxo-1,5-dihydro-4H-1,2,4-triazol-4-yl]-1,1,1-trifluoropropan-2-yl Hydrogen Phosphate] | 85.5 | > 500 | > 500 | > 500 | 39.5 | 2.2 |  |  |  | 
NC(=O)c1nc(Cn2nc(-c3ccc(Cl)cc3)n(C[C@H](OP(=O)([O-])[O-])C(F)(F)F)c2=O)nn1-c1ncccc1Cl.[Mg+2] [Example 22, Magnesium (2S)-3-[1-{[5-carbamoyl-1-(3-chloropyridin-2-yl)-1H-1,2,4-triazol-3-yl]methyl}-3-(4-chlorophenyl)-5-oxo-1,5-dihydro-4H-1,2,4-triazol-4-yl]-1,1,1-trifluoropropan-2-yl Phosphate] | 90 | > 500 | > 500 | > 500 | 45 |  |  |  |  | 2.0
